From the NIST ThermoML archive (doi:10.1016/j.fluid.2008.04.014)
Numbers after ± are expanded uncertainties.

Assays:
[1] = refractive index (Na D-line) (dimensionless); details: 293.15 K; 101.33 kPa; Liquid; Standard Abbe refractometry
[2] = Liquid; for mass density: 293.15 K, 101.33 kPa, Vibrating tube method; for Normal boiling temperature: Manometric method

SMILES: O [water]
- refractive index [1]: 1.3334 ± 0.001

SMILES: CC(=O)O [acetic acid]
- refractive index [1]: 1.3719 ± 0.0011
- mass density [2]: 1044.7 ± 0.3 kg/m3
- Normal boiling temperature [2]: 117.90 ± 0.4 °C

SMILES: O=CO [formic acid]
- refractive index [1]: 1.3709 ± 0.0011
- mass density [2]: 1221.1 ± 0.4 kg/m3
- Normal boiling temperature [2]: 101.00 ± 1 °C

SMILES: COC(=O)/C=C\C(=O)OC [dimethyl cis-butenedioate]
- refractive index [1]: 1.4415 ± 0.0011
- mass density [2]: 1160.8 ± 0.4 kg/m3
- Normal boiling temperature [2]: 202.00 ± 1 °C

SMILES: CCC(=O)O [propanoic acid]
- refractive index [1]: 1.391 ± 0.0011
- mass density [2]: 988.3 ± 0.3 kg/m3
- Normal boiling temperature [2]: 141.20 ± 0.4 °C
